# Experimental data reported in patent US7323319B2, “RNA containing coenzymes, biotin, or fluorophores, and methods for their preparation and use” (The University of Southern Mississippi, priority 2003, dated 2008).
# Read-outs that look alike come from different tables or passages of the source.
# Key:
# T7 RNA polymerase [1] = target: T1, T7 RNA polymerase (Escherichia phage T7, UniProt P00573); test: Coenzyme-initiated in vitro transcription of CoES7 RNA under T7 class II promoter, PAGE and phosphorimaging; format: biochemical; settings: for relative intensity of N band RNA / relative intensity of N+1 band RNA / relative intensity of N+2 band RNA: 4 mM coenzyme, 1 mM each NTP, CoES7 RNA, 2 hours 37° C.; for total RNA yields versus standard transcription conditions: higher than 8 mM coenzyme
# T1 sequence (P00573 whole entry): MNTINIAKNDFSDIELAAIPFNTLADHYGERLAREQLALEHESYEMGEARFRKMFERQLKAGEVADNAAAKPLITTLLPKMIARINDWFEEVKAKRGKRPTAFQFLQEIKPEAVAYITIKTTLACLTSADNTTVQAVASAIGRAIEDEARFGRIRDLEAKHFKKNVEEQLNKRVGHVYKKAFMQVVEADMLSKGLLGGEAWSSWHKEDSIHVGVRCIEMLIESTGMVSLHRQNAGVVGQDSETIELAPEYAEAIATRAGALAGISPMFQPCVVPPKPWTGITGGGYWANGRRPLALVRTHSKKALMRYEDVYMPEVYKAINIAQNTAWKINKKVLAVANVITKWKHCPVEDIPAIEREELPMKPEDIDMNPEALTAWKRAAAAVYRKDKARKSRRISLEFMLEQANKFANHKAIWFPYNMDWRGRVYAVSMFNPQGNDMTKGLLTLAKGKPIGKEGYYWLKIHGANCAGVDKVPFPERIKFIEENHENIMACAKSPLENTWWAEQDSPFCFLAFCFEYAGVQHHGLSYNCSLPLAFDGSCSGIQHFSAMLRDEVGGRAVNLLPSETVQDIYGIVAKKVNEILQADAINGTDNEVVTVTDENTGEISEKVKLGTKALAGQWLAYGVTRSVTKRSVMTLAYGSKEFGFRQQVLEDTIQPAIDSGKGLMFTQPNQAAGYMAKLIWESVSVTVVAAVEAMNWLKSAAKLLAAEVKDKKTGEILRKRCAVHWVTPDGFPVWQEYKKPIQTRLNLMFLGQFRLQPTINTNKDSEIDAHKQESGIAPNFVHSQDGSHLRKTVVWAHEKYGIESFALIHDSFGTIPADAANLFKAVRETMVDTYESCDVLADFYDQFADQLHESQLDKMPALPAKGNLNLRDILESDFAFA
# Protocol: Transcription promoter sequence was derived from the T7 class II promoter (φ2.5) (FIG. 1) (Dunn, J. J., and Studier, F. W., J. Mol. Biol. 166: 477-535 (1983)). The RNA sequence was from a previously isolated coenzyme-synthesizing ribozyme (Huang, F., et al., Biochemistry 39: 15548-15555 (2000)), CoES7, with the sequence of 5′-[…]-3′ (SEQ ID NO:1). Transcription was carried out under the following standard conditions: 1 mM each of ATP, UTP, GTP, and CTP, 40 mM Tris (pH 8.0), 6 mM MgCl2, 2 mM spermidine, 0.01% Triton X-100, 5 mM DTT, 0.2 unit/mL RNase inhibitor, […] DNA templates, and 5 unit/mL T7 RNA polymerase. In addition, different concentrations of coenzymes, De-P-CoA, NAD, and FAD were included to initiate transcription. For quantitation purposes, [α-^32P]ATP (NEN Life Science, Boston, Mass.) was also added to transcription solutions to internally label RNA transcripts. All transcription reactions were allowed to proceed for 2 hours at 37° C. before product analysis by 8% denaturing PAGE.
# Transcription of CoES7 RNA was carried out under the standard conditions, with the addition of various concentrations of coenzymes. After fractionation by PAGE, different RNA bands became clearly visible. In the absence of any coenzymes (lane 1), transcription produced three pppRNA bands in decreasing order: the full-length RNA transcripts (N band), N+1, and N+2 bands (with one and two extra nucleotides added at the 3′ end of full-length RNA). Their relative yields were 59%, 35%, and 6% (from N to N+2), respectively. When one of the three coenzymes, De-P-CoA, NAD, and FAD, was added to the transcription solution (lanes 2-4), no additional RNA bands were generated. However, the relative intensity of the three RNA bands in each lane changed considerably when compared with that of lane 1. […] In the presence of 4 mM De-P-CoA (lane 2), the relative intensity of the three bands changed to 40%, 45%, and 15% (from N to N+2). The relative RNA band intensity were 30%, 49%, and 21% for both NAD- and FAD-initiated transcription (lanes 3 and 4). These changes in RNA band relative intensity resulted from the incorporation of coenzymes (De-P-CoA, NAD, and FAD) into RNA. When one of these coenzymes is incorporated to the 5′ end of RNA, the coenzyme-linked RNA (CoE-RNA) behaves as if an extra normal nucleotide is added to the pppRNA. Therefore, the N band CoE-RNA co-migrates with the N+1 band pppRNA, while the N+1 band CoE-RNA and the N+2 band pppRNA run together in the gel. The N+2 band CoE-RNA was barely visible because of its low intensity. To confirm the incorporation of coenzymes into RNA under the class II promoter, three independent experiments were performed: resolution of CoA-RNA from pppRNA by gel after DNazyme cleavage, measurement of free sulfhydryl group of CoA-RNA, and fluorescence emission spectrum of FAD-RNA.
# T7 RNA polymerase [2] = target: T1, T7 RNA polymerase; settings: CoES7 RNA prepared under 1 mM ATP and 4 mM De-P-CoA
# Protocol: (§1) After polyacrylamide gel electrophoresis, individual RNA bands were visualized through phosphorimaging (Molecular Imager, Bio-Rad Laboratories, Hercules, Calif.). Quantitation of different RNA bands was achieved through profile integration after horizontal background subtraction. Coenzyme-RNA (CoE-RNA) yields were calculated based on relative intensity of pppRNA bands (N, N+1, and N+2 bands) in the absence of coenzymes. To confirm the validity of the calculation, DNazyme-cleaved pppRNA and CoA-RNA were quantitated directly after gel resolution of CoA-RNA from pppRNA. In addition, CoA-RNA yield was determined independently by thiopropyl Sepharose 6B affinity chromatography based on its free sulfhydryl group.
# T7 RNA polymerase [3] = target: T1, T7 RNA polymerase; format: biochemical; settings: for relative CoA-RNA yield / total RNA yield relative to RNA obtained at 1 mM ATP and 0 mM De-P-CoA: 4 mM De-P-CoA; for effect of 3′ blocked adenosine derivatives on normal RNA transcription and on CoA-RNA transcription: 4 mM, without coenzymes or in the presence of 4 mM De-P-CoA
# Excerpt: To physically separate CoA-RNA from pppRNA by PAGE, a different RNA sequence of 35 nucleotides was designed to allow a specific DNazyme (Santoro, S. W. and Joyce, G. F., Proc. Natl. Acad. Sci. USA 94: 4262-4266 (1997)) cleavage after transcription. Two DNA oligonucleotides with the sequence of 5′-[…]-3′ (SEQ ID NO:2) and 5′-[…]-3′ (SEQ ID NO:3) were used to construct (by PCR) a DNA duplex template, from which a 35 nt RNA sequence of 5′-[…]-3′ (SEQ ID NO:4) was transcribed. A DNazyme (with the sequence of 5′-[…]-3′; SEQ ID NO:5) was then used to specifically cleave off a portion of the 3′ heterogeneous ends of both CoA-RNA and pppRNA, yielding a homogeneous length of 25 nt CoA-RNA and pppRNA. Similar transcription conditions were used with the exception of different concentrations of ATP. Transcribed RNA (about […]) was incubated with […] DNazyme for 60 minutes at 37° C. in 50 mM MgCl2 and 50 mM Tris, pH 8.0. RNA was then analyzed by 12% denaturing PAGE.
# as §1
# To physically resolve coenzyme-RNA from pppRNA by gel, a DNazyme (Santoro, S. W., and Joyce, G. F., Proc. Natl. Acad. Sci. USA, 94: 4262-4266 (1997)) was designed to trim off the 3′ heterogeneous ends of RNA.
# [4] = Fluorescence emission spectra of FAD-RNA and free FAD; format: physicochemical; settings: 0.5 M sodium acetate, pH 5.2
# [5] = different coenzyme concentrations (De-P-CoA: low concentrations; FAD: especially >4 mM), FIGS. 4A-4C
# [6] = 0.2-0.5 mM ATP and 4 mM De-P-CoA
compound,measurement,setting,value
"CC(C)(COP(=O)(O)OP(=O)(O)OC[C@H]1O[C@@H](n2cnc3c(N)ncnc32)[C@H](O)[C@@H]1O)[C@@H](O)C(=O)NCCC(=O)NCCS [De-P-CoA, 3′-Dephospho coenzyme A]",relative intensity of N band RNA,T7 RNA polymerase [1],40%
same,relative intensity of N+1 band RNA,T7 RNA polymerase [1],45%
same,relative intensity of N+2 band RNA,T7 RNA polymerase [1],15%
same,coenzyme-RNA (CoE-RNA) yield over total RNA synthesized,"T7 RNA polymerase [1]; 4-8 mM coenzyme, standard transcription conditions",30-35%
same,effect on total RNA yield (transcription),T7 RNA polymerase [1]; [5],stimulates transcription to some extent
same,effect on total RNA yield (transcription),T7 RNA polymerase [1]; higher concentrations of De-P-CoA,eventually becomes inhibitory
same,total RNA yields versus standard transcription conditions,T7 RNA polymerase [1],significantly lower
same,loaded RNA retained on thiopropyl Sepharose 6B column (CoA-RNA yield),T7 RNA polymerase [2],30-35%
same,relative CoA-RNA yield,T7 RNA polymerase [3]; 0.1 mM ATP,56%
same,total RNA yield relative to RNA obtained at 1 mM ATP and 0 mM De-P-CoA,T7 RNA polymerase [3]; 0.1 mM ATP,12%
same,relative CoA-RNA yield,T7 RNA polymerase [3]; 0.2 mM ATP,52%
same,total RNA yield relative to RNA obtained at 1 mM ATP and 0 mM De-P-CoA,T7 RNA polymerase [3]; 0.2 mM ATP,44%
same,relative CoA-RNA yield,T7 RNA polymerase [3]; 0.5 mM ATP,46%
same,total RNA yield relative to RNA obtained at 1 mM ATP and 0 mM De-P-CoA,T7 RNA polymerase [3]; 0.5 mM ATP,85%
same,total RNA yield relative to RNA obtained at 1 mM ATP and 0 mM De-P-CoA,T7 RNA polymerase [3]; 1 mM ATP,110%
same,relative CoA-RNA yield,"T7 RNA polymerase [3]; 1 mM ATP, 1 mM GTP, CTP, UTP",33%
same,CoA-RNA produced by transcription,T7 RNA polymerase [3]; [6],over 50%
same,reduction in total RNA yields,T7 RNA polymerase [3]; [6],20-50%
Nc1ncnc2c1ncn2[C@@H]1O[C@H](CO)[C@@H](OP(=O)(O)O)[C@H]1O [3′ AMP],effect of 3′ blocked adenosine derivatives on normal RNA transcription and on CoA-RNA transcription,T7 RNA polymerase [3],neither CoA nor 3′ AMP has detectable effect
"CC(C)(COP(=O)(O)OP(=O)(O)OC[C@H]1O[C@@H](n2cnc3c(N)ncnc32)[C@H](O)[C@@H]1OP(=O)(O)O)[C@@H](O)C(=O)NCCC(=O)NCCS [CoA, coenzyme A]",effect of 3′ blocked adenosine derivatives on normal RNA transcription and on CoA-RNA transcription,T7 RNA polymerase [3],neither CoA nor 3′ AMP has detectable effect
"Cc1cc2nc3c(=O)[nH]c(=O)nc-3n(C[C@H](O)[C@H](O)[C@H](O)COP(=O)(O)OP(=O)(O)OC[C@H]3O[C@@H](n4cnc5c(N)ncnc54)[C@H](O)[C@@H]3O)c2cc1C [FAD, flavin adenine dinucleotide]",relative intensity of N band RNA,T7 RNA polymerase [1],30%
same,relative intensity of N+1 band RNA,T7 RNA polymerase [1],49%
same,relative intensity of N+2 band RNA,T7 RNA polymerase [1],21%
same,effect on total RNA yield (transcription),T7 RNA polymerase [1]; [5],somewhat inhibitory effect
same,total RNA yields versus standard transcription conditions,T7 RNA polymerase [1],significantly lower
same,enhancement of fluorescence intensity by urea,[4]; 4 M urea,1.7 fold
same,enhancement of fluorescence intensity by urea,[4]; 7 M urea,2.7 fold
